The source of these data is US20140303182A1, “PHARMACEUTICALLY ACCEPTABLE SALTS OF QUINOLINONE COMPOUNDS HAVING IMPROVED PHARMACEUTICAL PROPERTIES” (NOVARTIS AG, priority 2003, published 2014).

Data set [1] can be described thus: Aqueous equilibrium solubility and pH at saturation. The class given is physicochemical. To be noted: water, 24 hours at 22° C., HPLC, free base equivalent.
The next data set can be described thus: Crystallinity by XRPD. It counts as physicochemical. On the procedure:
XRPD analyses were carried out on a Shimadzu XRD-6000 X-ray powder diffractometer using Cu Kα radiation. The instrument is equipped with a fine focus X-ray tube. The tube voltage and amperage were set to 40 kV and 40 mA, respectively. The divergence and scattering slits were set at 1° and the receiving slit was set at 0.15 mm. Diffracted radiation was detected by a NaI scintillation detector. A theta-two theta continuous scan at 3°/minute (0.4 seconds/0.02° step) from […] was used.

Data set [2] is described as follows: Chemical stability, solid state (HPLC). To be noted: solid state.
Data set [3] can be described thus: Chemical stability, solution state (HPLC). It counts as physicochemical.
The next data set in a line: Compaction studies. It counts as physicochemical. To be noted: 200 mg at 5000 psi; for Tensile strength of compact: SC = Strong Cobb.
Data set [4] in a line: Crystal morphology, polarized light microscope. The class given is physicochemical. To be noted: 10× and 40× magnification.
Setting [5] is: 30° C./60% Relative humidity, listed as Sulphate.
Where [6] appears, read: 40° C./70% Relative humidity, listed as Sulphate.

Where “and” joins values, the source holds several entries; their conditions need not be identical. Identical values can stand only once. Counter-ions that a name gives are not always drawn. Like-named read-outs stand apart in the source and are kept apart here.

On to `CN1CCN(c2ccc3nc(-c4c(N)c5c(F)cccc5[nH]c4=O)[nH]c3c2)CC1` [Bis-Acetate, 4-Amino-5-fluoro-3-[6-(4-methylpiperazin-1-yl)-1H-benzimidazol-2-yl]-1H-quinolin-2-one], for which the Solubility in data set [1] came out at 31.9 mg FB/mL. In addition, the Crystallinity result is “mixture of crystalline” in “Crystallinity by XRPD”; “mixture of crystalline and amorphous material” in the data set “Crystallinity by XRPD” (listed as bis-acetate).

Regarding `CN1CCN(c2ccc3nc(-c4c(N)c5c(F)cccc5[nH]c4=O)[nH]c3c2)CC1` [Bis-Glycinate, 4-Amino-5-fluoro-3-[6-(4-methylpiperazin-1-yl)-1H-benzimidazol-2-yl]-1H-quinolin-2-one], the Solubility in data set [1] was 0.11 mg FB/mL.

In the case of `CN1CCN(c2ccc3nc(-c4c(N)c5c(F)cccc5[nH]c4=O)[nH]c3c2)CC1` [Bis-Lactate, 4-Amino-5-fluoro-3-[6-(4-methylpiperazin-1-yl)-1H-benzimidazol-2-yl]-1H-quinolin-2-one], in data set [1], the Solubility worked out at 304 mg FB/mL. For the same compound, the Crystallinity entry in “Crystallinity by XRPD” is “mixture of crystalline”; in “Crystallinity by XRPD” (listed as bis-lactate), “mixture of crystalline and amorphous material”. The “Area % at Time = 0” value in data set [2] (30° C./60% Relative humidity) is 98.71 Area %; in data set [2] (40° C./70% Relative humidity), 98.99 Area %. For the same compound, the “Area % at Time = 6 weeks” value in data set [2] (30° C./60% Relative humidity) came out at 98.64 Area %; in data set [2] (40° C./70% Relative humidity), 97.92 Area %.

As to `CN1CCN(c2ccc3nc(-c4c(N)c5c(F)cccc5[nH]c4=O)[nH]c3c2)CC1` [Bis-mesylate, 4-Amino-5-fluoro-3-[6-(4-methylpiperazin-1-yl)-1H-benzimidazol-2-yl]-1H-quinolin-2-one], the Crystallinity entry in “Crystallinity by XRPD” is “mixture of crystalline”; in the data set “Crystallinity by XRPD” (listed as bis-mesylate), “crystalline”. In addition, the “Area % at Time = 0” value was found to be 99.01 Area % in data set [2] (30° C./60% Relative humidity) and 98.78 Area % in data set [2] (40° C./70% Relative humidity). In addition, the “Area % at Time = 6 weeks” value stood at 98.12 Area % in data set [2] (30° C./60% Relative humidity) and 98.35 Area % in data set [2] (40° C./70% Relative humidity).

Turning to `CN1CCN(c2ccc3nc(-c4c(N)c5c(F)cccc5[nH]c4=O)[nH]c3c2)CC1` [BisHCl, 4-Amino-5-fluoro-3-[6-(4-methylpiperazin-1-yl)-1H-benzimidazol-2-yl]-1H-quinolin-2-one], the Solubility in data set [1] was found to be 42 mg FB/mL.

For the compound `CN1CCN(c2ccc3nc(-c4c(N)c5c(F)cccc5[nH]c4=O)[nH]c3c2)CC1` [Glycinate, 4-Amino-5-fluoro-3-[6-(4-methylpiperazin-1-yl)-1H-benzimidazol-2-yl]-1H-quinolin-2-one], the Solubility in data set [1] came out at 0.0638 mg FB/mL.

Turning to `CN1CCN(c2ccc3nc(-c4c(N)c5c(F)cccc5[nH]c4=O)[nH]c3c2)CC1` [Hemi-malate, 4-Amino-5-fluoro-3-[6-(4-methylpiperazin-1-yl)-1H-benzimidazol-2-yl]-1H-quinolin-2-one], the Solubility in data set [1] worked out at 6.39 mg FB/mL. Moreover, in the data set “Crystallinity by XRPD”, the Crystallinity result is listed as “crystalline”.

Turning to `CN1CCN(c2ccc3nc(-c4c(N)c5c(F)cccc5[nH]c4=O)[nH]c3c2)CC1` [Hydrochloride, 4-Amino-5-fluoro-3-[6-(4-methylpiperazin-1-yl)-1H-benzimidazol-2-yl]-1H-quinolin-2-one], the Solubility in data set [1] turned out to be 26.3 mg FB/mL.

Regarding `CN1CCN(c2ccc3nc(-c4c(N)c5c(F)cccc5[nH]c4=O)[nH]c3c2)CC1` [Maleate, 4-Amino-5-fluoro-3-[6-(4-methylpiperazin-1-yl)-1H-benzimidazol-2-yl]-1H-quinolin-2-one], in data set [1], the Solubility came out at 0.866 mg FB/mL.

For the compound `CN1CCN(c2ccc3nc(-c4c(N)c5c(F)cccc5[nH]c4=O)[nH]c3c2)CC1` [Mono-acetate, 4-Amino-5-fluoro-3-[6-(4-methylpiperazin-1-yl)-1H-benzimidazol-2-yl]-1H-quinolin-2-one], the Solubility in data set [1] was found to be 84.4 mg FB/mL; in data set [1] (listed as Acetate) it was 15.4 mg FB/mL. Also, the Crystallinity entry in “Crystallinity by XRPD” is on record as “amorphous”; in the data set “Crystallinity by XRPD” (listed as Acetate), “mixture of crystalline”; in the data set “Crystallinity by XRPD” (listed as acetate salt), “amorphous”.

With `CN1CCN(c2ccc3nc(-c4c(N)c5c(F)cccc5[nH]c4=O)[nH]c3c2)CC1` [Mono-citrate, 4-Amino-5-fluoro-3-[6-(4-methylpiperazin-1-yl)-1H-benzimidazol-2-yl]-1H-quinolin-2-one], the results for the Solubility in data set [1] and in data set [1] (listed as Citrate) were 0.456 mg FB/mL and 27.2 mg FB/mL, respectively. For the same compound, the Crystallinity result in the data set “Crystallinity by XRPD” and in “Crystallinity by XRPD” (listed as citrate) was “crystalline” throughout.

With `CN1CCN(c2ccc3nc(-c4c(N)c5c(F)cccc5[nH]c4=O)[nH]c3c2)CC1` [Mono-mesylate, 4-Amino-5-fluoro-3-[6-(4-methylpiperazin-1-yl)-1H-benzimidazol-2-yl]-1H-quinolin-2-one], the Solubility in data set [1] is 185 mg FB/mL and 180 mg FB/mL; in data set [1] (listed as Mesylate), 22.3 mg FB/mL. The Crystallinity entry was “crystalline” in the data set “Crystallinity by XRPD”; “mixture of crystalline” in “Crystallinity by XRPD” (listed as Mesylate); “crystalline” in the data set “Crystallinity by XRPD” (listed as mesylate); “mixture of crystalline and amorphous material” in “Crystallinity by XRPD” (listed as mono-mesylate). Also, the “Area % at Time = 0” value in data set [3] (5° C.) was 98.70 Area %; in data set [3] (ambient temperature), 98.70 Area %; in data set [2] (30° C./60% Relative humidity), 98.80 Area %; in data set [2] (40° C./70% Relative humidity), 98.89 Area %. The “Area % at Time = 7 days” value stood at 98.76 Area % in data set [3] (5° C.) and 98.77 Area % in data set [3] (ambient temperature). Besides, the “Forms Compact” value in “Compaction studies” is reported as “form compacts”; in the data set “Compaction studies” (listed as Mesylate-trial 1) it was “Yes”; in the data set “Compaction studies” (listed as Mesylate-trial 2) it was “Yes”. Besides, the entries for the “Tensile strength of compact” value in “Compaction studies” (listed as Mesylate-trial 1) and in “Compaction studies” (listed as Mesylate-trial 2) were 6.9 SC and 17.9 SC, respectively. Also, the Thickness of compact in the data set “Compaction studies” (listed as Mesylate-trial 1) is on record as 2.77 mm; in “Compaction studies” (listed as Mesylate-trial 2), 2.87 mm. Further, the values for the Morphology entry in data set [4], in data set [4] (listed as Mesylate-trial 1) and in data set [4] (listed as Mesylate-trial 2) were “varies from plate to needle”, “Plate” and “Needle”, respectively. Moreover, the “Area % at Time = 6 weeks” value worked out at 98.68 Area % in data set [2] (30° C./60% Relative humidity) and 98.7 Area % in data set [2] (40° C./70% Relative humidity).

Consider `CN1CCN(c2ccc3nc(-c4c(N)c5c(F)cccc5[nH]c4=O)[nH]c3c2)CC1` [Mono-tartrate, 4-Amino-5-fluoro-3-[6-(4-methylpiperazin-1-yl)-1H-benzimidazol-2-yl]-1H-quinolin-2-one], for which, in data set [1] (listed as L-Tartrate), the Solubility is 103.4 mg FB/mL. The Crystallinity result is “crystalline” in “Crystallinity by XRPD”; “mixture of crystalline” in “Crystallinity by XRPD” (listed as L-Tartrate); “mixture of crystalline and amorphous material” in “Crystallinity by XRPD” (listed as L-tartrate).

For the compound `CN1CCN(c2ccc3nc(-c4c(N)c5c(F)cccc5[nH]c4=O)[nH]c3c2)CC1` [Nitrate, 4-Amino-5-fluoro-3-[6-(4-methylpiperazin-1-yl)-1H-benzimidazol-2-yl]-1H-quinolin-2-one], in data set [1], the Solubility worked out at 6.7 mg FB/mL.

As to `CN1CCN(c2ccc3nc(-c4c(N)c5c(F)cccc5[nH]c4=O)[nH]c3c2)CC1` [Phosphate, 4-Amino-5-fluoro-3-[6-(4-methylpiperazin-1-yl)-1H-benzimidazol-2-yl]-1H-quinolin-2-one], in data set [1], the Solubility was determined as 13.8 mg FB/mL. The Crystallinity entry in the data set “Crystallinity by XRPD” was “mixture of crystalline”; in “Crystallinity by XRPD” (listed as phosphate), “mixture of crystalline and amorphous material”. Also, the “Area % at Time = 0” value is on record as 98.47 Area % in data set [2] (30° C./60% Relative humidity) and 98.84 Area % in data set [2] (40° C./70% Relative humidity). In addition, the results for the “Area % at Time = 6 weeks” value in data set [2] (30° C./60% Relative humidity) and in data set [2] (40° C./70% Relative humidity) were 99.28 Area % and 98.86 Area %, respectively.

On to `CN1CCN(c2ccc3nc(-c4c(N)c5c(F)cccc5[nH]c4=O)[nH]c3c2)CC1` [Sulfate, 4-Amino-5-fluoro-3-[6-(4-methylpiperazin-1-yl)-1H-benzimidazol-2-yl]-1H-quinolin-2-one], for which the Solubility in data set [1] is 19.7 mg FB/mL. For the same compound, the Crystallinity entry was “mixture of crystalline” in “Crystallinity by XRPD”; “mixture of crystalline and amorphous material” in the data set “Crystallinity by XRPD” (listed as sulfate). The entries for the “Area % at Time = 0” value in data set [2] (setting [5]) and in data set [2] (setting [6]) were 98.75 Area % and 98.96 Area %, respectively. Besides, the “Area % at Time = 6 weeks” value worked out at 99.39 Area % in data set [2] (setting [5]) and 98.9 Area % in data set [2] (setting [6]).
